pIC50, pKd: −log10 of the molar value.
Experiments:
[1] = biological target: T1, purified recombinant KGA (Homo sapiens, UniProt O94925); test: KGA activity inhibition assay, spectrophotometric (NADH production at 340 nm); format: biochemical; conditions: 37° C., 30 min, 5 mM glutamine
T1 construct: His6 (C); made in house; host or cells: E. coli Rosetta (DE3), pET28a(+)
T1 sequence (O94925 72-598): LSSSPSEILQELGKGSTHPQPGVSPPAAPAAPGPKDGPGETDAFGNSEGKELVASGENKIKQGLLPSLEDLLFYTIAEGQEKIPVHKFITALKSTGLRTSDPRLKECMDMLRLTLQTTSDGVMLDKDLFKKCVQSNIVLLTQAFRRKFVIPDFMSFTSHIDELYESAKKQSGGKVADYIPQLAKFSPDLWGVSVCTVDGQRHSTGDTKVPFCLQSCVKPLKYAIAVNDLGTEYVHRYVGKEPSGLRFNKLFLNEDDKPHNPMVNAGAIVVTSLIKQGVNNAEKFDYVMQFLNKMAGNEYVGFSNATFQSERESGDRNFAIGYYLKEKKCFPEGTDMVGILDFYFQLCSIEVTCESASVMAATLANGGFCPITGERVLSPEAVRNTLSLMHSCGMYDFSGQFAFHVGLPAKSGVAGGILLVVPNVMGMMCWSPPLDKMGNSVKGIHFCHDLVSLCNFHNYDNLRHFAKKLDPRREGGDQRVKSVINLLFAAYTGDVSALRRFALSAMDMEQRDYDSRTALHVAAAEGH

[2] = test system: MDA-MB-231 cells
[3] = biological target: T2, KGA (Homo sapiens, UniProt O94925); format: biochemical
T2 construct: His6 (C); made in house; host or cells: E. coli Rosetta (DE3), pET28a(+)
T2 sequence (O94925 72-598): T1 sequence (O94925 72-598)

[4] = test system: MCF12A cells; format: cell-based, human; conditions: read-out: IC50 cell viability, normal breast cells
[5] = test system: HCC1569 cells
[6] = biological target: purified KGA (Homo sapiens, UniProt O94925); conditions: read-out: apparent binding affinity (Kd)
[7] = test system: MDA-MB-231 cells; remark: listed apart in the source

## N[C@H](CC[As](=O)(O)O)C(=O)O [AST-OH, hydroxyarsinothricin]
[1]
  half-maximal inhibitory concentration (IC50) against KGA: submillimolar range

## [N-]=[N+]=CC(=O)CC[C@H](N)C(=O)O [DON, 6-diazo-5-oxo-L-norleucine]
[1]
  half-maximal inhibitory concentration (IC50) against KGA: submillimolar range

## NC(CCP(=O)(O)O)C(=O)O (stereo not shown) [AP4, 2-amino-4-phosphonobutyric acid]
[1]
  half-maximal inhibitory concentration (IC50) against KGA: submillimolar range

## NC(CC[As](O)O)C(=O)O (stereo not shown) [R-AST-OH, trivalent hydroxyarsinothricin]
[2]
  cell permeability (uptake of arsenicals): lowest permeability
[3]; luminescent assay, 15 min preincubation with KGA, read-out: IC50 against KGA
  pIC50: 5.70
[3]; ratio of IC50 values
  fold more effective inhibitor of KGA than Rox(III): 4.5 fold
  fold more effective inhibitor of KGA than pentavalent AST-OH: 125 fold
[4]
  pIC50: 4.12
[5]; 10 µM
  cells that lost viability: ~47%
[5]; read-out: IC50 cell viability
  pIC50: 5.52
[6]
  pKd: 4.40
[7]; 10 µM
  cells that lost viability: approximately 64%
[7]; read-out: IC50 cell viability
  pIC50: 5.30
